Source: US11453679B2, “Methyl 2-methyl-5-oxo-1,4,5,7-tetradhydrofuro[3,4-b]pyridine-3-carboxylate compounds as Cav1.2 activators” (Novartis AG, priority 2020, dated 2022)
Read-outs that look alike come from different tables or passages of the source.

Assays:
cFos mRNA = cFos mRNA induction in cortex of wild-type mice (quantitative PCR); format: in vivo, C57BL/6J male mice; settings: one hour after administration
Protocol: Compound administration and brain tissue collection.
Quantification of cFos mRNA induction. Tissue homogenization was performed using TissueLyser system for 96 well plates (Qiagen). First, frozen cortical samples were thawed, removed from RNAlater, and placed into TissueLyser tubes along with Buffer RLT containing 0.5% Reagent DX and one 5 mm TissueLyser metal bead. The TissueLyser tubes were loaded into a TissueLyser II tissue homogenizer for 3 rounds of homogenization, with each round lasting 5 minutes at 30 Hz bead-beating frequency. Total RNA was purified from the homogenate using RNeasy 96 Plus kit (Qiagen), RNA concentration and A260/A280 ratio were quantified via the Nanodrop (ThermoFisher), and all samples were normalized to 100 ng/μl concentration. RNA was reverse transcribed into cDNA using the Superscript III First-strand synthesis SuperMix Kit (ThermoFisher). For each sample, 6 μl of RNA (600 ng total) was mixed with 1 μL of Oligo dT and 1 μL of annealing buffer and heated to 65° C. for 5 minutes. Next, 10 μL of 2× First-Strand Reaction Mix and 2 μL of the Enzyme mix were added to achieve a total reaction volume of 20 μL. The samples were heated to 50° C. for 50 minutes then 85° C. for 5 minutes to complete cDNA synthesis.
Quantitative PCR was performed on the cDNA samples using Quantitect Multiplex RT-PCR kit (Qiagen) in a 384-well assay format. Each PCR well contained 2 μL of cDNA (60 ng total), 10 μL of RT-PCR mastermix, 1 μL of cFos FAM Taqman probe (Mm00487425_m1 (FAM) #4351368), 1 μL of GAPDH VIC Taqman probe (Mm99999915-g1 (VIC) #4448486), 0.2 μL of Multiplex RT mix and 5.8 μl of RNase-free water. On the ViiA7 Real-Time PCR system (ThermoFisher), the samples were heated to 95° C. for 15 minutes then cycled between 94° C. for 45 seconds and 60° C. for 45 seconds for 45 cycles. cFos Ct values were exported, normalized to GAPDH Ct values, and converted to relative fold change in expression using the delta-delta Ct relative quantification method. cFos fold changes between compound treatments and vehicle were analyzed by one-way ANOVA, followed by Tukey's post-hoc comparisons.

human Cav1.2 [1] = biological target: T1, human Cav1.2 (Homo sapiens, UniProt Q13936)
Protocol: (§1) 24 hours prior an electrophysiology experiment, doxycycline (1 μg/ml) was added to the growth medium (Table 1), and 25 μM of verapamil was co-applied to prevent calcium influx triggered cell death. Cell confluency should reach 70%-80% right before the experiment.
(§2) To harvest cells (from a T175 cm^2 flask as an example), growth media were removed completely, and the cells were rinsed with 10 mL of D-PBS. D-PBS was aspirated, and 10 mL of Detachin (Genlantis) was added and the plate was placed in a 37° C. incubator for 10 minutes. Detached cells were placed into a 15 mL conical tube and spun at 1000 rpm for 2 minutes. Supernatant was removed, and cells were re-suspended in QPatch complete media (Table 2) to desired cell density of 1.5-3 million cells per QPatch run. Each experimental run uses 1.5 mL of cells.
(§3) The cells suspension was taken to the Sophion QPatch platform that uses whole-cell voltage clamp to measure barium currents conducted through Cav1.2 on single-hole QPlates. […] A dose-response assay protocol was used to determine the maximal fold change of peak inward current (Emax) and potency (EC50) of each compound. The protocol had eight liquid periods. The first liquid period was to stabilize current amplitude, which was monitored using repetitive 200-ms voltage pulses stepping from −80 mV to 0 mV. The second liquid period was to determine baseline current amplitude in the presence of vehicle control, using a single 20-ms voltage pulse stepping from −80 mV to 0 mV. The third through eighth liquid periods were used to ascertain a 6-dose response to compound treatments, also using single 20-ms voltage pulses stepping from −80 mV to 0 mV. The EC50 was generated using the following equation Iconcentration=Ibase+(Ifull−Ibase)*c^n/(XC50^n+c^n), where c is the concentration and n is the Hill coefficient constant. Ifull is the maximal current achievable, and Ibase is 0.

[2] = mouse, in vivo, ip
Protocol: (§4) Compound administration and brain tissue collection. Wild-type C57BL/6J male mice were obtained from Jackson laboratories (Bar Harbor, Me.). The acute, single-dose effects of Cav1.2 activators of the present disclosure were evaluated in male eight-week old mice (n=6 mice per compound). Each compound was dissolved in 10% PEG300, 10% Solutol, 10% Cremophore EL, and 70% Phosphate Buffered Saline and administered intraperitoneal (i.p.) at a concentration of 1 mg/kg up to 30 mg/kg depending on the compound. Animals were euthanized one hour after compound administration via exsanguination under deep anesthesia. Blood was collected in EDTA tubes for downstream analysis of drug levels. Brains were rapidly removed from the skull, and the cerebral cortex and cerebellum were regionally dissected. Cerebellar samples were snap frozen in liquid nitrogen to assess compound exposure.
(§5) Quantification of compound exposure. Cerebellar tissue samples were homogenized in 4 mL of 20% acetonitrile and 80% Phosphate buffered saline for every 1 g of tissue (5× dilution). Tissue was homogenized using either of the following three methods: hand held probe system, TissueLyser system with 5 mm steel bead at a frequency of 30 s^−1 for 4 min, or OMNI Bead Ruptor Elite homogenizer for 30 seconds to 1 minute depending on tissue type. Tissue samples were added to a 96-well plate (12.5 μL sample) and processed for quantification by mass spectrometry.

human Cav1.2 [3] = biological target: T1, human Cav1.2; assay: Sophion QPatch whole-cell voltage clamp dose-response assay, Cav1.2-HEK293(AUX) cell line (barium currents); settings: for QPatch Emax: maximal fold change of peak inward current; for EC50: QPatch EC50, 6-point dose response, 20-ms pulses from −80 mV to 0 mV, n = 1 unless marked (* n = 2, # n = 3)
Protocol: as §1, §2, §3

human Cav1.2 [4] = biological target: T1, human Cav1.2; assay: QPatch channel biophysics assay (current-voltage relationship, V1/2, tau of inactivation), Cav1.2-HEK293(AUX) cell line; format: cell-based; parameters: expressed in transfected cells; host or cells: Flp-In 293 T-Rex (HEK293), clone 2-19B, stably transfected with pCMV6-entry-CACNA1C and pcDNA5H/FRT-TO-CACNA2D2-FCS-P2A-CACNB2; settings: shift of half-way channel activation voltage (V1/2)
Protocol: Clonal isolation was achieved under Neomycin selection.
Each experimental run uses 1.5 mL of cells.
The protocol had eight liquid periods. […] The protocol had four liquid periods.

[5] = Compound exposure in wild-type mice (cerebellum and blood, mass spectrometry); settings: male, C57BL/6J, mouse, brain (cerebellum) and whole blood, ip
Protocol: as §4, §5

T1 sequence (Q13936 whole entry): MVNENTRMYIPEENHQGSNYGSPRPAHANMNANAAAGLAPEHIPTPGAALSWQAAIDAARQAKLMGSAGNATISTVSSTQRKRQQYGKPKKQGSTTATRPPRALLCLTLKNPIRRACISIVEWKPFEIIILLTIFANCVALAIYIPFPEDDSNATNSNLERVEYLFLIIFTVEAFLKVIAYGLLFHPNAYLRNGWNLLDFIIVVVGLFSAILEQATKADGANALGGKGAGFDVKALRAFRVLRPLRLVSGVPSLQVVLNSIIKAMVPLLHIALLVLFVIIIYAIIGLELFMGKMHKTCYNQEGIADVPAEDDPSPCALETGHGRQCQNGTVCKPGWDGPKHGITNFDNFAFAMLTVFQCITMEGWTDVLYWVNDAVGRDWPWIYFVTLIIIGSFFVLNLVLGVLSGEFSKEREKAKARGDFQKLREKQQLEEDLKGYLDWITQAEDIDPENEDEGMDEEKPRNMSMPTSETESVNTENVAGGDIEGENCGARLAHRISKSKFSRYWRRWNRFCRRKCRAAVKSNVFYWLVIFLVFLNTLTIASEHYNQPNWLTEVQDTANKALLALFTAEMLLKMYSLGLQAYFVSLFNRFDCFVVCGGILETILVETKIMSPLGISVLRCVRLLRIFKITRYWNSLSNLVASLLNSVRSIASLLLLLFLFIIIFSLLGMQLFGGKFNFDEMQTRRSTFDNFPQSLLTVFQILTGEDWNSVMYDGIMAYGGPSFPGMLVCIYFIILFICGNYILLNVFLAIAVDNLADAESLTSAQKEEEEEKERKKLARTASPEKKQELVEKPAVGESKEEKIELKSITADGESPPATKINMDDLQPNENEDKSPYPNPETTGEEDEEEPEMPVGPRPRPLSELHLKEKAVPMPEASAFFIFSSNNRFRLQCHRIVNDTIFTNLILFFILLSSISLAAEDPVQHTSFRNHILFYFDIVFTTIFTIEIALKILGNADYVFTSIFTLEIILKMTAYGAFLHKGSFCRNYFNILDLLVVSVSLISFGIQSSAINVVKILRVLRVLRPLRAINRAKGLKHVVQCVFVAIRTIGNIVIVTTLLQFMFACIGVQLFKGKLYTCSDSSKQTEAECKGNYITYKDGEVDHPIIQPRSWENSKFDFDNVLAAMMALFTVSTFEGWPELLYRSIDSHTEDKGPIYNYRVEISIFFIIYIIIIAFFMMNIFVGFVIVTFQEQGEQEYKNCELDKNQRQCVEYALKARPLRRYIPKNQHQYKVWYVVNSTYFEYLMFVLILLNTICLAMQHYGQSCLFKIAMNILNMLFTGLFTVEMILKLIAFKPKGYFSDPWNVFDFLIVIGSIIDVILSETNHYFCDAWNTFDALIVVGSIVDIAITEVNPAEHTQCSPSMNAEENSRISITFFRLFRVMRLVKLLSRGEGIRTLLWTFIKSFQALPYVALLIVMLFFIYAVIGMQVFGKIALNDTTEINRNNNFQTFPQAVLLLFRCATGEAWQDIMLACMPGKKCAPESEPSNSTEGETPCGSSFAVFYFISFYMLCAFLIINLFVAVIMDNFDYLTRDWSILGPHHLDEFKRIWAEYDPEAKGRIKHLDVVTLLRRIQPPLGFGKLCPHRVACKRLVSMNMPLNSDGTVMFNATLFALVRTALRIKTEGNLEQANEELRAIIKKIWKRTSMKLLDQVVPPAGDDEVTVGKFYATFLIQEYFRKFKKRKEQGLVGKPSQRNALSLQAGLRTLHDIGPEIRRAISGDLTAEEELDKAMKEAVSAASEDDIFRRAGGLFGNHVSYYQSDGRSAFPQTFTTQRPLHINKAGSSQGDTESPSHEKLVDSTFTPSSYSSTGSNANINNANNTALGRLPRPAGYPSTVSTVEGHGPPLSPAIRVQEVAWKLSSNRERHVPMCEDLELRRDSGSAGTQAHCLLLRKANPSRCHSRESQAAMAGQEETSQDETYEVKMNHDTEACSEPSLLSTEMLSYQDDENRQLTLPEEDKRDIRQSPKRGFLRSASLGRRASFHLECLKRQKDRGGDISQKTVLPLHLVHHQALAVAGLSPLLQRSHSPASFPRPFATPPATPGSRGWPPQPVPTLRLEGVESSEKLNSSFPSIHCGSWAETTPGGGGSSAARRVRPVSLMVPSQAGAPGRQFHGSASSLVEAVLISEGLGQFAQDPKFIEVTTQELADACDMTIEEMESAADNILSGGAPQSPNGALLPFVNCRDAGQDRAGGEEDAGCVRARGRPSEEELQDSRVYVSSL
T1 sequence (Q9NY47 19-1001 partner limits assumed): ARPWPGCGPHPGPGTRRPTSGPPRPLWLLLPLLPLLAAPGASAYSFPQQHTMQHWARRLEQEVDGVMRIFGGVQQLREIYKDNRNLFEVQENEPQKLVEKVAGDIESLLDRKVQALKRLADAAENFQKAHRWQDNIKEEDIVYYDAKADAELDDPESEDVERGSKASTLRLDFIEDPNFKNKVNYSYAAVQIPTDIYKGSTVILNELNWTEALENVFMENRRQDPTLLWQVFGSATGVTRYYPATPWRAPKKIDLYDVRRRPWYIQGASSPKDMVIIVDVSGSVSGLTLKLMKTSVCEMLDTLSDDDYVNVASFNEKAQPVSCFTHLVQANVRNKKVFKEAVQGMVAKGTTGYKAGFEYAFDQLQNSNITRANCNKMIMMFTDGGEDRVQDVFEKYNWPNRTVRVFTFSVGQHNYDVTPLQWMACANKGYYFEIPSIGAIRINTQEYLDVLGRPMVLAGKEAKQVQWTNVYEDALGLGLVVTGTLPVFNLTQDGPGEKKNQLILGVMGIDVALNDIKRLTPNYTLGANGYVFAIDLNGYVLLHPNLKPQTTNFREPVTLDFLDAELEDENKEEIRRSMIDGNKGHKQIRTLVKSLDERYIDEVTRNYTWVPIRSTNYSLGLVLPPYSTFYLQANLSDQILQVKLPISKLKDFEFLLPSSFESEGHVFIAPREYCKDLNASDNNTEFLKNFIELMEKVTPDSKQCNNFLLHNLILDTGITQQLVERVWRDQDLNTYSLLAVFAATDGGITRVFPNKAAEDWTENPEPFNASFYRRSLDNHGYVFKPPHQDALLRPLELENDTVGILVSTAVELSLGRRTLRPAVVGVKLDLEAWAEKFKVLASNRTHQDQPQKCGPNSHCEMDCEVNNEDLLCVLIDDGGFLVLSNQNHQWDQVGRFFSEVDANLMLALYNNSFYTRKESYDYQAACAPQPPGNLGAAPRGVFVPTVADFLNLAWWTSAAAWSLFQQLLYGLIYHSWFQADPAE
T1 sequence (Q9NY47 1002-1150 partner limits assumed): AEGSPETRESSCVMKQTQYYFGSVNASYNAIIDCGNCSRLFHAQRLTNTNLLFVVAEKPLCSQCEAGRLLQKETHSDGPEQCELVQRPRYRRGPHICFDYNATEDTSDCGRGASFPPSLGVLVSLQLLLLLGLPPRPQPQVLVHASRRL
T1 sequence (Q08289 whole entry partner): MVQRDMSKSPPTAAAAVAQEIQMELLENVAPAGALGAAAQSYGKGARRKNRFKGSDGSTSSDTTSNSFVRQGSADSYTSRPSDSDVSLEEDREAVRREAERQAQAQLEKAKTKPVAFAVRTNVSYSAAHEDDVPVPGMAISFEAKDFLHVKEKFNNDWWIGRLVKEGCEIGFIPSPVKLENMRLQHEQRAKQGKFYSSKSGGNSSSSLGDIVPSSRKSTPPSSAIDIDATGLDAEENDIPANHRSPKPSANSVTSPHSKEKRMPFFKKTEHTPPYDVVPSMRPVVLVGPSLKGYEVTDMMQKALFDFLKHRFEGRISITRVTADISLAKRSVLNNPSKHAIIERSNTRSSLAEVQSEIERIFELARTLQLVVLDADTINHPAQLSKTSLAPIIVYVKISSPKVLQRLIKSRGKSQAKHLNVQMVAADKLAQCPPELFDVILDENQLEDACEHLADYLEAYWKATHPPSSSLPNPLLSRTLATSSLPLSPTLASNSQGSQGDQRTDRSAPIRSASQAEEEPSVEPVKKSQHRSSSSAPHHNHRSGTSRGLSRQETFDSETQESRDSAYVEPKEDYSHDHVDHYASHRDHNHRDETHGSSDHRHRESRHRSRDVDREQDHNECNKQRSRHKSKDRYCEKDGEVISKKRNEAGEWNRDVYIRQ

COC(=O)C1=C(C)NC2=C(C(=O)OC2)[C@H]1c1cccc(F)c1C1CC1(F)F (single isomer, unassigned) [Example 2, Methyl (S)-4-(2-((S or R)-2.2-difluorocyclopropyl)-3-fluorophenyl)-2-methyl-5-oxo-1,4,5,7-tetrahydrofuro[3,4-b]pyridine-3-carboxylate]
% ↑cFOS mRNA cortex (3 mg/kg ip) (cFos mRNA): 23%
% ↑cFOS mRNA cortex (10 mg/kg ip) (cFos mRNA): 203%
EC50 (human Cav1.2 [1]): 170 nM
Brain:blood ratio [2]: 3.4
QPatch Emax (human Cav1.2 [3]): 1.6
Biophysics voltage shift (human Cav1.2 [4]): −1.9 mV

COC(=O)C1=C(C)NC2=C(C(=O)OC2)[C@H]1c1cccc(F)c1[C@H]1CC1(F)F (single isomer, unassigned) [Example 1, Methyl (S)-4-(2-((R or S)-2,2-difluorocyclopropyl)-3-fluorophenyl)-2-methyl-5-oxo-1,4,5,7-tetrahydrofuro[3,4-b]pyridine-3-carboxylate]
% ↑cFOS mRNA cortex (3 mg/kg ip) (cFos mRNA): 169%
% ↑cFOS mRNA cortex (10 mg/kg ip) (cFos mRNA): 350%
Kp at 1 h [5]: 1.1
EC50 (human Cav1.2 [3]): 130 nM
QPatch Emax (human Cav1.2 [3]): 2.0
Biophysics voltage shift (human Cav1.2 [4]): −4.5 mV

COC(=O)C1=C(C)NC2=C(C(=O)OC2)[C@H]1c1cc(F)cc(F)c1C1CC1 (single isomer, unassigned) [Example 14]
% ↑cFOS mRNA cortex (3 mg/kg ip) (cFos mRNA): 228%
% ↑cFOS mRNA cortex (10 mg/kg ip) (cFos mRNA): 364%
Kp at 1 h [5]: 1.7
EC50 (human Cav1.2 [3]): 65 nM
QPatch Emax (human Cav1.2 [3]): 1.8
Biophysics voltage shift (human Cav1.2 [4]): −1.9 mV

COC(=O)C1=C(C)NC2=C(C(=O)OC2)[C@H]1c1cccc(F)c1CC(F)(F)F (single isomer, unassigned) [Example 9]
% ↑cFOS mRNA cortex (3 mg/kg ip) (cFos mRNA): 112%
Kp at 1 h [5]: 2.3
EC50 (human Cav1.2 [3]): 130 nM
QPatch Emax (human Cav1.2 [3]): 1.5
Biophysics voltage shift (human Cav1.2 [4]): −6.6 mV
